ChEMBL document CHEMBL3091271, “Discovery of triazine mimetics as potent antileishmanial agents” (ACS Med Chem Lett, 2013)
The source made the active and inactive calls. No cut-off for these calls is given here.

How the values were obtained:
Leishmania donovani [1] = assay: Antileishmanial activity against amastigote stage of Leishmania donovani MHOM/IN/80/Dd8 infected in mouse J-774A.1 cells after 72 hrs by luciferase reporter gene assay; assay type: functional, organism-based; details: MHOM/IN/80/Dd8, J774.A1, 72 h
[2] = Cytotoxicity against African green monkey Vero cells assessed as cell viability after 72 hrs by MTT assay; assay type: cell-based; details: chlorocebus sabaeus
[3] = (§1) Selectivity index, ratio of CC50 to African green monkey Vero cells to IC50 for amastigote stage of Leishmania donovani MHOM/IN/80/Dd8; assay type: functional
Vero = assay: as §1; assay type: functional
J774.A1 [4] = assay: Immunostimulatory activity in Leishmania infected mouse J774A1 cells assessed as increase in nitric oxide production at IC50 measured at 24 hrs by sandwich ELISA relative to untreated infected cell; assay type: functional
J774.A1 [5] = assay: Immunostimulatory activity in Leishmania infected mouse J774A1 cells assessed as downregulation of TGF-beta level at IC50 measured at 24 hrs by sandwich ELISA relative to untreated infected cell; assay type: functional
J774.A1 [6] = assay: Immunostimulatory activity in Leishmania infected mouse J774A1 cells assessed as downregulation of IL-10 level at IC50 measured at 48 hrs by sandwich ELISA; assay type: functional, cell-based
[7] = Immunostimulatory activity in Leishmania infected mouse J774A1 cells assessed as upregulation of IL-12 level at IC50 measured at 24 hrs by sandwich ELISA relative to untreated infected cell; assay type: functional, cell-based; details: J774.A1
[8] = Immunostimulatory activity in Leishmania infected mouse J774A1 cells assessed as upregulation of TNF-alpha level at IC50 measured at 24 hrs by sandwich ELISA relative to untreated infected cell; assay type: functional, cell-based; details: J774.A1
J774.A1 [9] = assay: Immunostimulatory activity in Leishmania infected mouse J774A1 cells assessed as downregulation of IL-10 level at IC50 measured at 24 hrs by sandwich ELISA; assay type: functional, cell-based
[10] = Immunostimulatory activity in Leishmania infected mouse J774A1 cells assessed as upregulation of TNF-alpha level at IC50 measured at 48 hrs by sandwich ELISA; assay type: functional, cell-based; details: J774.A1
J774.A1 [11] = assay: Immunostimulatory activity in Leishmania infected mouse J774A1 cells assessed as increase in nitric oxide production at IC50 measured at 48 hrs by sandwich ELISA; assay type: functional, cell-based
J774.A1 [12] = assay: Immunostimulatory activity in Leishmania infected mouse J774A1 cells assessed as downregulation of TGF-beta level at IC50 measured at 48 hrs by sandwich ELISA; assay type: functional, cell-based
Syrian golden hamster = assay: Toxicity in golden hamster infected with amastigote stage of Leishmania donovani MHOM/IN/80/Dd8 assessed as appearance of abnormal behavior at 50 mg/kg/day, ip measured for 5 days; assay type: organism-based, Mesocricetus auratus; design: route intraperitoneal; details: in vivo, 120 h
[13] = Immunostimulatory activity in Leishmania infected mouse J774A1 cells assessed as upregulation of IL-12 level at IC50 measured at 48 hrs by sandwich ELISA; assay type: functional, cell-based; details: J774.A1
Leishmania donovani [14] = assay: Antileishmanial activity against amastigote stage of Leishmania donovani MHOM/IN/80/Dd8 infected in golden hamster assessed as inhibition of parasite multiplication in splen at 50 mg/kg/day, ip administered for 5 days measured on day 7 by Giemsa staining relative to control; assay type: functional; details: MHOM/IN/80/Dd8, ip, route intraperitoneal

Compound | IC50 (Leishmania donovani [1]) [µM] | CC50 at 72 h [2] [µM] | Ratio CC50/IC50 [3] | further results
c1ccc(Nc2nc(NCCCCOc3nc(Nc4ccccc4)nc(N4CCc5ccccc5C4)n3)nc(N3CCc4ccccc4C3)n2)cc1 | 7.52 | > 400 | >53.19 | –
Sodium stibogluconate | – | – | – | Ratio CC50/IC50 (Vero): 8.56
Clc1nc(NCCCCOc2nc(Cl)nc(Nc3ccccc3)n2)nc(Nc2ccccc2)n1 | 10.3 | 7.74 | 0.75 | –
CCCNc1nc(NCCCCOc2nc(NCCC)nc(Nc3ccccc3)n2)nc(Nc2ccccc2)n1 | 1.99 | 216 | 108.58 | fold change (FC) (J774.A1 [4]): 2; fold change (FC) (J774.A1 [5]): 1.8; Activity (J774.A1 [6]): inactive; fold change (FC) [7]: 3; fold change (FC) [8]: 2; Activity (J774.A1 [9]): Active; Activity [10]: inactive; Activity (J774.A1 [11]): inactive; Activity (J774.A1 [12]): inactive; Activity (Syrian golden hamster): Non-toxic; Activity [13]: inactive; inhibition in vivo at 50 mg/kg/day (Leishmania donovani [14]): 74.4%
CCCCNc1nc(NCCCCOc2nc(NCCCC)nc(Nc3ccccc3)n2)nc(Nc2ccccc2)n1 | 3.21 | > 400 | >124.61 | –
c1ccc(Nc2nc(NCCCCOc3nc(Nc4ccccc4)nc(NC4CC4)n3)nc(NC3CC3)n2)cc1 | > 40 | – | – | –
c1ccc(Nc2nc(NCCCCOc3nc(NCCCN4CCOCC4)nc(Nc4ccccc4)n3)nc(NCCCN3CCOCC3)n2)cc1 | 1.7 | 13.8 | 8.11 | –
c1ccc(Nc2nc(NCCCCOc3nc(Nc4ccccc4)nc(N4CCCc5ccccc54)n3)nc(N3CCCc4ccccc43)n2)cc1 | 8.98 | 17.1 | 1.9 | –
CCCCCNc1nc(NCCCCOc2nc(NCCCCC)nc(Nc3ccccc3)n2)nc(Nc2ccccc2)n1 | 6.46 | > 400 | >61.92 | –
c1ccc(Nc2nc(NCCCCOc3nc(Nc4ccccc4)nc(N4CCOCC4)n3)nc(N3CCOCC3)n2)cc1 | 3.15 | 276 | 87.5 | –
CC(C)Nc1nc(NCCCCOc2nc(Nc3ccccc3)nc(NC(C)C)n2)nc(Nc2ccccc2)n1 | 3.51 | > 400 | >113.96 | –
CN1CCN(c2nc(NCCCCOc3nc(Nc4ccccc4)nc(N4CCN(C)CC4)n3)nc(Nc3ccccc3)n2)CC1 | 1.33 | 20.1 | 15.08 | –
CC(C)(C)Nc1nc(NCCCCOc2nc(Nc3ccccc3)nc(NC(C)(C)C)n2)nc(Nc2ccccc2)n1 | 0.77 | 198 | 257.48 | Activity (Syrian golden hamster): Non-toxic; inhibition in vivo at 50 mg/kg/day (Leishmania donovani [14]): 62.6%
c1ccc(Nc2nc(NCCCCOc3nc(NCCN4CCOCC4)nc(Nc4ccccc4)n3)nc(NCCN3CCOCC3)n2)cc1 | 2.91 | 115 | 39.61 | –
CCCCCCCCCCCCCCCCOP(=O)([O-])OCC[N+](C)(C)C [MILTEFOSINE] | 8.1 | – | 6.56 | –
CCN1CCN(c2nc(NCCCCOc3nc(Nc4ccccc4)nc(N4CCN(CC)CC4)n3)nc(Nc3ccccc3)n2)CC1 | 0.86 | 16.2 | 18.87 | –
CCCNc1nc(NCCCCOc2nc(Nc3ccccc3)nc(NC3CC3)n2)nc(Nc2ccccc2)n1 | 8.26 | 18.2 | 2.2 | –
c1ccc(Nc2nc(NCCCCCOc3nc(Nc4ccccc4)nc(N4CCOCC4)n3)nc(N3CCOCC3)n2)cc1 | > 40 | – | – | –
CCCNc1nc(NCCCCCOc2nc(NCCC)nc(Nc3ccccc3)n2)nc(Nc2ccccc2)n1 | > 40 | – | – | –
CCCNc1nc(Nc2ccccc2)nc(OCCCCNc2nc(Nc3ccccc3)nc(NC3CC3)n2)n1 | 2.65 | > 400 | >150.94 | –
Clc1nc(NCCCCCOc2nc(Cl)nc(Nc3ccccc3)n2)nc(Nc2ccccc2)n1 | 8.98 | 17.1 | 1.9 | –
N=C(N)c1ccc(OCCCCCOc2ccc(C(=N)N)cc2)cc1 [PENTAMIDINE] | 13.7 | 85.9 | 6.27 | –
